Assay results: US9688637B2, “3-amidobenzamides and uses thereof for increasing cellular levels of A3G and other A3 family members” (Northwestern University, priority 2014, dated 2017)

Columns and labels:
A3G-Luc = A3G-Luc luciferase screen in 293T cells stably expressing A3G-Luc; assay type: cell-based, human; conditions: 48 hrs, DMSO = 100%
From the text: This background led to construction of cell lines to use in a search for compounds that might boost levels of A3s in the HIV target cells of the majority of HIV-infected persons who are non-controllers. The goal is to test a strategy of using such a booster in acute/early infection to prevent the hypothesized decrease of A3G and related A3s in an effort to increase “control” in persons lacking HLA B57/27-associated control. […] 293T and TZM-bl cells were maintained in DMEM (containing 4.5 g/liter glucose, L-glutamine, and sodium pyruvate) medium plus 10% fetal bovine serum, 50 IU/ml penicillin, and 50 μg/ml streptomycin at 37° C. and 5% CO2 throughout the experiments. […]. After collecting viral supernatant, 293T cells were infected with viral particles harboring the A3G-Luc expressing vector and selected with puromycin (0.75 μg/ml) for three days. Ten single cell clones of stable cells were isolated and tested for expression of A3G-Luc protein by both immunoblotting using antibody against A3G and measuring luciferase activity. Expressions in cell lines used for subsequent experiments are depicted in FIG. 2, upper panel. The A3G-Luc fusion protein was sensitive to Vif-mediated degradation (FIG. 3). Similar cells lines stably expressing A3F were constructed with the same methods (not shown).
To screen compounds that can boost A3G levels, 293T cells (25,000 cells per well in 96-well plate) stably expressing A3G-Luc protein or A3G-Luc/Vif proteins were plated. […] After 48 hrs of incubation with compounds culture medium was removed from each well and replaced with 100 μl of Britelite Plus luciferase assay substrate (PerkinElmer). Following 5 min. of incubation at room temperature, 75 μl of each cell lysate was transferred to a 96-well OptiPlate 96 (PerkinElmer) and luminescence was measured in a VICTOR X2 Multilabel Reader (PerkinElmer). Relative activity of compounds for their boosting capability A3G-Luc activity was calculated by plotting DMSO-treated A3G-Luc or A3G-Luc/Vif cells as 100%. Cellular cytotoxicity was measured by counting number of cells after 48 hrs of incubation with compounds compared to DMSO treated cells.

293T cells = experiment: Cellular cytotoxicity by counting cells after 48 hrs with compound vs DMSO; assay type: cell-based; conditions: 48 hrs; for Cytotoxicity: Cell Proliferation Blocked at: concentration at which proliferation was blocked
Procedure: (§1) To screen compounds that can boost A3G levels, 293T cells (25,000 cells per well in 96-well plate) stably expressing A3G-Luc protein or A3G-Luc/Vif proteins were plated. After 24 hrs post plating culture medium was replaced with 100 μl of new medium containing either DMSO as a control or various compounds (10 μM concentration). After 48 hrs of incubation with compounds culture medium was removed from each well and replaced with 100 μl of Britelite Plus luciferase assay substrate (PerkinElmer). Following 5 min. of incubation at room temperature, 75 μl of each cell lysate was transferred to a 96-well OptiPlate 96 (PerkinElmer) and luminescence was measured in a VICTOR X2 Multilabel Reader (PerkinElmer). Relative activity of compounds for their boosting capability A3G-Luc activity was calculated by plotting DMSO-treated A3G-Luc or A3G-Luc/Vif cells as 100%. Cellular cytotoxicity was measured by counting number of cells after 48 hrs of incubation with compounds compared to DMSO treated cells.

Wild-type HIV-1 [1] = experiment: A3G-mediated restriction of wild-type HIV-1; virus from 293T stably expressing A3G, TZM-bl readout; assay type: cell-based; conditions: Human immunodeficiency virus 1, HEK-293T, read-out: A3G-mediated Restriction by Compounds on Wild-type HIV-1 (% of HIV replication relative to DMSO treated Control)
Procedure: (§2) To test the effect of compounds shown to boost A3G-Luc levels in our screening systems on inhibition of wild-type HIV-1 replication by A3G or A3F, 293T cell lines stably expressing A3G or A3F were plated (750,000 cells per well in 6-well plate). At 24 hrs post plating, 1.5 μg of a wild-type (Vif-positive) HIV-1 proviral vector, NL4.3, was transfected into the 293T stable cell lines expressing either A3G or A3F. At 4 hrs post transfection, either DMSO as a control or an individual compound from series described below was added into the culture medium at a 10 μM concentration. At 1 day post transfection, supernatant fluids containing viral particles were filtered through […] filter to remove cellular debris. To test the effect of compound on HIV-1 replication, TZM-bl indicator cells were plated at a density of 10,000 cells/well in a 96 well culture plate 24 hrs prior to infection. TZM-bl indicator cells express luciferase gene under the control of HIV LTR promoter and are routinely used to measure HIV-1 replication capability. On the day of infection, the culture medium was removed and the cells inoculated with equal amount of HIV-1 particles in triplicate with 100 μl of viral supernatants in culture medium containing 20 μg/ml DEAE-dextran. After 24 hrs of incubation, culture medium was removed from each well and replaced with 100 μl of Britelite Plus luciferase assay substrate. Following 5 min. of incubation at room temperature, 75 μl of each cell lysate was transferred to a 96-well OptiPlate 96 and luminescence was measured in a VICTOR X2 Multilabel Reader as described above. Relative infectivity was calculated by plotting luciferase activity from viral particle from DMSO treated A3G or A3F cell lines as 100%. We only tested effect A3F- or A3G mediated restriction of HIV-1 replication by compounds boosting luciferase activity by more than 160% compared to DMSO control sample.

A3G-Luc/Vif [2] = experiment: A3G-Luc/Vif luciferase screen in 293T cells stably co-expressing A3G-Luc and HIV-1 Vif; assay type: cell-based, human; conditions: 10 μM, 48 hrs, DMSO = 100%
Procedure: FIG. 6. 293T cell clone #6 stably co-expressing A3G-Luciferase fusion protein together with HIV-1 Vif was used. Small molecule compounds were tested for their effects on stability of A3G and inhibition of Vif activity against A3G by measuring luciferase activity, relative to treatment with control DMSO only. The relative % luciferase activity was higher after treatment with NU compounds than DMSO.
[…]. After sorting, expression of both A3G-Luc and Vif was confirmed by immunoblotting using antibody against both A3G and Vif.
as §1

Wild-type HIV-1 [3] = experiment: A3F-mediated restriction of wild-type HIV-1; virus from 293T stably expressing A3F, TZM-bl readout; assay type: cell-based; conditions: Human immunodeficiency virus 1, HEK-293T, read-out: A3F-mediated Restriction by Compounds on Wild-type HIV-1 (% of HIV replication relative to DMSO treated Control)
Procedure: as §2

BC-1 = BC-1 primary effusion lymphoma cell proliferation; assay type: cell-based; conditions: primary effusion lymphoma (PEL) cell line (FIG. 10)
From the text: FIG. 10. A primary effusion lymphoma (PEL) cell line (BC-1, infected with both Kaposi's sarcoma herpesvirus and Epstein Barr Virus) is also killed by the listed compounds.

A3G-Luc/Vif [4] = experiment: A3G-Luc/Vif luciferase screen in 293T cells stably co-expressing A3G-Luc and HIV-1 Vif; assay type: cell-based, human; conditions: 30 μM, 48 hrs, DMSO = 100%

| SMILES | A3G-Luc Activity (% of Relative Light Units compared to DMSO treated control) (A3G-Luc; 10 μM) [%] | activity at 10 µM (Wild-type HIV-1 [1]) [%] | Vif-A3G-Luc Activity (% of RLUs compared to DMSO treated control) (A3G-Luc/Vif [2]) [%] | activity at 10 µM (Wild-type HIV-1 [3]) [%] | other results |
| --- | --- | --- | --- | --- | --- |
| CC(C)(C)OC(=O)NCCOCCOc1ccc(C(=O)Nc2ccc(Cl)c(Cl)c2)cc1NC(=O)CC1CC1 [NU-126] | 4.8 | – | – | – | Cytotoxicity: Cell Proliferation Blocked at (293T cells): Cell Proliferation Blocked at 10 μM |
| CC(C)(C)OC(=O)NCCOCCOc1ccc(C(=O)Nc2ccc(Cl)c(Cl)c2)cc1N [NU-124] | 25 | – | – | – | Cytotoxicity: Cell Proliferation Blocked at (293T cells): Cell Proliferation Blocked at 10 μM |
| COc1ccc(C(=O)Nc2ccc(Cl)c(Cl)c2)cc1NC(=O)C1CCCO1 (centres unmarked) [NU-464] | 288 | 77 | 170 | 77 | – |
| CC(C)C(=O)Nc1cc(C(=O)Nc2ccc(Cl)c(Cl)c2)ccc1OCCOCCNC(=O)CCCCC1SC[C@@H]2NC(=O)N[C@H]12 (some centres unmarked) [NU-127] | 68 | – | – | – | Cytotoxicity: Cell Proliferation Blocked at (293T cells): Cell Proliferation Blocked at 10 μM |
| CCOc1ccc(C(=O)Nc2ccc(Cl)c(Cl)c2)cc1NC(=O)C1CCC1 [NU-612] | 202 | 81 | 178 | 96 | – |
| COCCOc1ccc(C(=O)Nc2ccc(Cl)c(Cl)c2)cc1NC(=O)CC1CC1 [NU-617] | 191 | 74 | 182 | – | – |
| COCC(=O)Nc1cc(C(=O)Nc2ccc(Cl)c(Cl)c2)ccc1OC [NU-462] | 282 | 62 | 170 | 53 | – |
| COc1ccc(C(=O)Nc2ccc(Cl)c(Cl)c2)cc1N(C)C(=O)C(C)C [NU-611] | 67 | – | 75 | – | BC-1 cell proliferation (BC-1): inhibit BC-1 cell proliferation |
| COCCOc1ccc(C(=O)Nc2ccc(Cl)c(Cl)c2)cc1NC(=O)C1CCC1 [NU-616] | 171 | 95 | 152 | – | – |
| CC(C)C(=O)Nc1cc(C(=O)Nc2ccc(Cl)c(Cl)c2)ccc1OCCOCCNC(=O)OC(C)(C)C [NU-125] | 25 | – | – | – | Cytotoxicity: Cell Proliferation Blocked at (293T cells): Cell Proliferation Blocked at 10 μM |
| COc1ccc(C(=O)Nc2ccc(Cl)c(Cl)c2)cc1NS(=O)(=O)C(C)C [NU-468] | 213 | 58 | 147 | 48 | – |
| COc1ccc(C(=O)Nc2cc(OC)c(OC)c(OC)c2)cc1NC(=O)C(C)C [NU-56] | – | – | – | – | Vif-A3G-Luc Activity (% of RLUs compared to DMSO treated control) (A3G-Luc/Vif [4]): 93%; A3G-Luc Activity (% of Relative Light Units compared to DMSO treated control) (A3G-Luc; 30 μM): 114% |
| COc1ccc(NC(=O)c2ccc(OC)c(NC(=O)C(C)C)c2)cc1 [NU-54] | – | – | – | – | Vif-A3G-Luc Activity (% of RLUs compared to DMSO treated control) (A3G-Luc/Vif [4]): 116%; A3G-Luc Activity (% of Relative Light Units compared to DMSO treated control) (A3G-Luc; 30 μM): 137% |
| COc1ccc(C(=O)Nc2ccc(F)cc2)cc1NC(=O)C(C)C [NU-564] | 162 | 72 | 102 | – | – |
| COc1ccc(C(=O)Nc2cc(OC)c(OC)c(OC)c2)cc1N [NU-49] | – | – | – | – | Cytotoxicity: Cell Death at (293T cells; concentration at which cell death was seen): Cell Death at 10 μM |
| CCC(=O)Nc1cc(C(=O)Nc2cc(OC)c(OC)c(OC)c2)ccc1OC [NU-57] | – | – | – | – | Vif-A3G-Luc Activity (% of RLUs compared to DMSO treated control) (A3G-Luc/Vif [4]): 74%; A3G-Luc Activity (% of Relative Light Units compared to DMSO treated control) (A3G-Luc; 30 μM): 87% |
| COc1ccc(C(=O)Nc2ccc(Cl)c(Cl)c2)cc1NC(=O)CN(C)C [NU-471] | 238 | 66 | 175 | 65 | – |
| COc1ccc(C(=O)Nc2cc(OC)c(OC)c(OC)c2)cc1NC(C)=O [NU-58] | – | – | – | – | Vif-A3G-Luc Activity (% of RLUs compared to DMSO treated control) (A3G-Luc/Vif [4]): 93%; A3G-Luc Activity (% of Relative Light Units compared to DMSO treated control) (A3G-Luc; 30 μM): 123% |
| COC(=O)Nc1cc(C(=O)Nc2ccc(Cl)c(Cl)c2)ccc1OC [NU-460] | 254 | 34 | 119 | 34 | – |
| COc1ccc(C(=O)Nc2ccc(Cl)c(Cl)c2)cc1NC(=O)C(C)(C)C [NU-458] | 189 | 54 | 123 | 45 | – |
| COc1ccc(C(=O)Nc2ccc(Cl)c(Cl)c2)cc1NC(=O)C1CC1C (centres unmarked) [NU-465] | 193 | 47 | 106 | 53 | – |
| COc1ccc(C(=O)Nc2ccc(Cl)c(Cl)c2)cc1NC(=O)N(C)C [NU-472] | 238 | 61 | 146 | 49 | – |
| CCOc1ccc(C(=O)Nc2ccc(Cl)c(Cl)c2)cc1NC(=O)CC1CC1 [NU-613] | 186 | 98 | 158 | 85 | – |
| COCCC(=O)Nc1cc(C(=O)Nc2ccc(Cl)c(Cl)c2)ccc1OC [NU-463] | 287 | 64 | 178 | 67 | – |
| COc1ccc(C(=O)Nc2ccc(Cl)c(Cl)c2)cc1NS(C)(=O)=O [NU-467] | 194 | 79 | 146 | 64 | – |
